# Data reported in ChEMBL document CHEMBL1201862, “PubChem BioAssay data set” (2004).
# Structures can show the parent of a compound that is named as a salt. Calls of active or inactive are those of the source.
# How the values were obtained:
# H4 = experiment: Luminescence Cell-Based Dose Response HTS to Identify Activators of 5'UTR Stem-Loop Driven Prion Protein mRNA Translation in H4 Neuroglioblastoma Cells. [Related pubchem assays: 1829 (Project Summary), 1814 (Primary HTS)]; type: functional; details: Homo sapiens
# [1] = Luminescence Cell-Based Dose Response HTS to Identify Activators of Luciferase Translation or Activity in H4 […] Cells. [Related pubchem assays: 1829 (Project Summary), 1814 (Primary HTS)]; type: functional
# [2] = cytotoxicity toward NIH3T3 fibroblasts, dose response, counter-screen, cell-based, ATP luminescence, mouse fibroblasts (AID 2010); type: functional;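 further: cells exposed to compound for about 90 hours before reading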
# Protein skinhead-1 = biological target: T1, Protein skinhead-1 (Caenorhabditis elegans, UniProt P34707); type: functional
# T1 sequence (P34707 whole entry): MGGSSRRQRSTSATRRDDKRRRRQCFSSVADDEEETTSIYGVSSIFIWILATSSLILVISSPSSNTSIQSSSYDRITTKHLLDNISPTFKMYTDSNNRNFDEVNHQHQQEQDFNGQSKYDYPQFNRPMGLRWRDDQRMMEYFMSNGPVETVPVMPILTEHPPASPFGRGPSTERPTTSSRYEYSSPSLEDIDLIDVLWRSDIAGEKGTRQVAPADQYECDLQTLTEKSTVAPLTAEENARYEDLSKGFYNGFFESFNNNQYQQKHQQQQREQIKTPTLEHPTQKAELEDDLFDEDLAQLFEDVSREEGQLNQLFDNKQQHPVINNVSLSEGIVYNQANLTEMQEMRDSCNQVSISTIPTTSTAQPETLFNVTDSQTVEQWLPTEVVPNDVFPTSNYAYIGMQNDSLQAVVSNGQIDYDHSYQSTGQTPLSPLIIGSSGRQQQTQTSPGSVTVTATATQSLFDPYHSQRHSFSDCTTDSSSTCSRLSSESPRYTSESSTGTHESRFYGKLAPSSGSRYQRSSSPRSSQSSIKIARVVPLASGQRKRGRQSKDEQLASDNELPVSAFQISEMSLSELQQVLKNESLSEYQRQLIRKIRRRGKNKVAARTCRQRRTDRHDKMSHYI
# Coagulation factor XII = biological target: T2, Coagulation factor XII (Homo sapiens, UniProt P00748); type: functional;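 further: activated factor XIIa alpha cleaving a fluorogenic AMC peptide substrate; inhibitor potency from loss of enzyme activity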
# T2 sequence (P00748 whole entry): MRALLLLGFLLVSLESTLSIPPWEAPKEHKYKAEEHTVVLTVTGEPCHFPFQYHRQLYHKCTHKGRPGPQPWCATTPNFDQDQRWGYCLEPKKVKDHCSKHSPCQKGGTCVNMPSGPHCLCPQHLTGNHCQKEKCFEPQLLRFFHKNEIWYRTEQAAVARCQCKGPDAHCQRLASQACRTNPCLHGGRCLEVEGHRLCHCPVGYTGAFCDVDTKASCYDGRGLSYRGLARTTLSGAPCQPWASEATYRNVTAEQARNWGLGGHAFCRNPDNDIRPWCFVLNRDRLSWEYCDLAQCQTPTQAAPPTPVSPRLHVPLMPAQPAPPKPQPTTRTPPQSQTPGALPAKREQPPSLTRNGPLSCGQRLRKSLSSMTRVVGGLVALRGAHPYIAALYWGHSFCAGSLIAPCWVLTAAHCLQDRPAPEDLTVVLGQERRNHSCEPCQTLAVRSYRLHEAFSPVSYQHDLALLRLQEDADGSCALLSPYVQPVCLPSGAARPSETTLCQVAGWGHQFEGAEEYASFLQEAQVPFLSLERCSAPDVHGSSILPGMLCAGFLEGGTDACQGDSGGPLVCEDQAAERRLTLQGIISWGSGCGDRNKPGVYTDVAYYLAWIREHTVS
# [3] = inhibitors of intracellular T. cruzi replication, confirmation, NIH3T3 host cells, beta-gal luminescence (AID 2044); type: functional, cell-based;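 further: intracellular parasites grown in NIH/3T3 mouse fibroblasts as host cells; luminescent beta-galactosidase reporter signal from transgenic T. cruzi replicating inside host cells; inhibitors lower the luminescence signal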
# [4] = Luminescence Cell-Based Dose Confirmation HTS to Identify Activators of 5'UTR Stem-Loop Driven Alpha-Synuclein mRNA Translation in H4 Neuroglioblastoma Cells. [Related pubchem assays: 1829 (Project Summary), 1814 (Primary HTS)]; type: functional
# Cytochrome P450 3A4 = Cytochrome P450 3A4 (Homo sapiens, UniProt P08684);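 further: CYP3A4 tested as one member of a cytochrome P450 panel screen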
# [5] = HEp-2 cell cytotoxicity, dose response, cytotoxicity control for RSV inhibitor project, HTS (AID 2410); type: functional; details: human respiratory syncytial virus
# Vero [6] = experiment: cells; type: functional; details: Chlorocebus sabaeus
# Vero [7] = experiment: cells; type: functional, cell-based; details: Chlorocebus sabaeus
# [8] = biological target: Peroxisome proliferator-activated receptor gamma/Nuclear receptor coactivator 3 (Homo sapiens, UniProt P37231); experiment: TR-FRET dose response biochemical High Throughput Screening assay for agonists of the steroid receptor coactivator 3 (SRC-3) recruitment by the peroxisome proliferator-activated receptor gamma (PPAR gamma): non-selective agonists. [Related pubchem assays: 1301 (Confirmation screen.), 1048 (Primary screen.)]; type: functional
# [9] = biological target: Peroxisome proliferator-activated receptor gamma/Nuclear receptor coactivator 2 (Homo sapiens, UniProt P37231); experiment: TR-FRET dose response biochemical High Throughput Screening assay for agonists of the steroid receptor coactivator 2 (SRC-2) recruitment by the peroxisome proliferator-activated receptor gamma (PPAR gamma): non-selective agonists. [Related pubchem assays: 1297, 1032 ]; type: functional
# [10] = biological target: Peroxisome proliferator-activated receptor gamma/Nuclear receptor coactivator 1 (Homo sapiens, UniProt P37231); experiment: TR-FRET dose response biochemical High Throughput Screening assay for agonists of the steroid receptor coactivator 1 (SRC-1) recruitment by the peroxisome proliferator-activated receptor gamma (PPAR gamma): non-selective agonists. [Related pubchem assays (depositor defined):AID1300, AID1808, AID504735, AID631]; type: protein assay
# [11] = inhibitors of firefly luciferase expression or activity, dose response, H4 neuroglioma cells, luminescence (AID 1990); type: functional, cell-based
# Protein RecA = biological target: T3, Protein RecA (Mycobacterium tuberculosis, UniProt P9WHJ3); experiment: Fluorescence Cell-Free Homogeneous Dose Retest to Identify Inhibitors of RecA-Intein Splicing Activity. [Related pubchem assays (depositor defined):AID2097, AID2223, AID489010, AID492950]; type: functional
# T3 sequence (P9WHJ3 whole entry): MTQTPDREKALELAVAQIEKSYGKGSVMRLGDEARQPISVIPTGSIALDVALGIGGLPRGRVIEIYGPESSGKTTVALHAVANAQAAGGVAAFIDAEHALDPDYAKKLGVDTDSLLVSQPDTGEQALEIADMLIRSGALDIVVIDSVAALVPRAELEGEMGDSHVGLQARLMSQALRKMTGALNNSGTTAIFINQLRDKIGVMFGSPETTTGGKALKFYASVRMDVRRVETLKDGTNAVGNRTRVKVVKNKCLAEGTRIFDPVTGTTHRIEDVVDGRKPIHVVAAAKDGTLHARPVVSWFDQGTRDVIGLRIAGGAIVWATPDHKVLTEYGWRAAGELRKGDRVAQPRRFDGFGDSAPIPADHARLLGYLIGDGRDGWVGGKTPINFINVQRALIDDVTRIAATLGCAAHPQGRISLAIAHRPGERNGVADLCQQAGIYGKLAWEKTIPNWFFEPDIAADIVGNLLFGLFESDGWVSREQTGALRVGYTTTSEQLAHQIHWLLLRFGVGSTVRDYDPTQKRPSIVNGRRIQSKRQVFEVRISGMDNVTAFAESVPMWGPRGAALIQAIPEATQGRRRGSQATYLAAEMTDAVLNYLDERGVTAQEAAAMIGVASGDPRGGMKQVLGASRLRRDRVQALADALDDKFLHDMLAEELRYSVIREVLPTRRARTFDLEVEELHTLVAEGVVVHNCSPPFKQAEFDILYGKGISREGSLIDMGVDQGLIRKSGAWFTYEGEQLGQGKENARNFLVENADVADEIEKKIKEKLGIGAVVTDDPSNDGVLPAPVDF
# [12] = biological target: T4, Replicative DNA helicase DnaB (Mycobacterium tuberculosis, UniProt P9WMR3); experiment: DnaB intein splicing inhibitors, dose response, biochemical, cell-free fluorescence (AID 449749); type: functional
# T4 sequence (P9WMR3 whole entry): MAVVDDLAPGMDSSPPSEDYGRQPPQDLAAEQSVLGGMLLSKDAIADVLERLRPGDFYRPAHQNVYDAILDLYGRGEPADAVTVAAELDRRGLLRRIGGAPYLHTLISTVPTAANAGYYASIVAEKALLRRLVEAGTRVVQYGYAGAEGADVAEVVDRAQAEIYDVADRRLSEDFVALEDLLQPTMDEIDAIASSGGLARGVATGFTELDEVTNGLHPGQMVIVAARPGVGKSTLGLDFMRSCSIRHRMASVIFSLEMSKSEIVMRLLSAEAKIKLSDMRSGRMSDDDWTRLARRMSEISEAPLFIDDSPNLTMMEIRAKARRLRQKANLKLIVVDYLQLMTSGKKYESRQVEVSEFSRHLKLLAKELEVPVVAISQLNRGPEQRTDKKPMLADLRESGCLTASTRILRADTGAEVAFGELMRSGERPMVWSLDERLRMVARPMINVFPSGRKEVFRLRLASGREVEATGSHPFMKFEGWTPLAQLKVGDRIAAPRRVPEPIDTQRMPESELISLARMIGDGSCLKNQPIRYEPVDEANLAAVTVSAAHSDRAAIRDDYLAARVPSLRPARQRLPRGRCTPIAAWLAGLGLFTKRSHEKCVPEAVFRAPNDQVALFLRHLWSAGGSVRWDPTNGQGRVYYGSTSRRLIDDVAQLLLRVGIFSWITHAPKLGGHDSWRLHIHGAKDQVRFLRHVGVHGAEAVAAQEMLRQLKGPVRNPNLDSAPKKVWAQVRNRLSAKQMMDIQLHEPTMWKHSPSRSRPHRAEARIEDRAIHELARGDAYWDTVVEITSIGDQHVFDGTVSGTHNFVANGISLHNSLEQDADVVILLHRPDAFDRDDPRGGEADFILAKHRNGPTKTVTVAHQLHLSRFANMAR
# [13] = biological target: T5, Microphthalmia-associated transcription factor (Homo sapiens, UniProt O75030); experiment: TRPM1 promoter luciferase signal decrease, dose response, MITF inhibitor project, cell-based, SK-MEL-5, cherry-picked, set 3 (AID 493073); type: functional
# T5 sequence (O75030 whole entry): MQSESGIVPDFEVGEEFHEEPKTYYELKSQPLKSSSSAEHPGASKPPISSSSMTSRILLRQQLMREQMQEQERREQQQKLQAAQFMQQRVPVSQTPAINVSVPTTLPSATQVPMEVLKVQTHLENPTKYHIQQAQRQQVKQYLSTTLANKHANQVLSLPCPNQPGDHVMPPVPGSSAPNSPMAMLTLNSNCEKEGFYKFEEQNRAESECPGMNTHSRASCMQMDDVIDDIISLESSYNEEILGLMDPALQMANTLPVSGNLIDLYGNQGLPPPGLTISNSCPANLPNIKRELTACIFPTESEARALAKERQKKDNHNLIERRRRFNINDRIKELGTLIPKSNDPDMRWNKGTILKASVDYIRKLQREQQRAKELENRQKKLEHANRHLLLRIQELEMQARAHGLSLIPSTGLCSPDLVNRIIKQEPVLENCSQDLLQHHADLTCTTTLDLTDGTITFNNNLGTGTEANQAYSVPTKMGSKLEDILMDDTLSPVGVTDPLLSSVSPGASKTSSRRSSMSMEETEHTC
# [14] = inhibitors of SNCA 5'UTR-driven reporter translation, confirmation, H4 neuroglioma cells, luminescence (AID 1988); type: functional, cell-based
# [15] = Luminescence Cell-Based Dose Response HTS to Identify Inhibitors of 5'UTR Stem-Loop Driven Prion Protein mRNA Translation in H4 Neuroglioblastoma Cells. [Related pubchem assays: 1827 (Project Summary), 1813 (Primary HTS)]; type: functional
# [16] = biological target: T6, Ubiquitin-conjugating enzyme E2 N (Homo sapiens, UniProt P61088); type: functional;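 further: Dose-response confirmation in a TR-FRET assay detecting UBC13-driven polyubiquitin chain formation, inhibition measured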
# T6 sequence (P61088 whole entry): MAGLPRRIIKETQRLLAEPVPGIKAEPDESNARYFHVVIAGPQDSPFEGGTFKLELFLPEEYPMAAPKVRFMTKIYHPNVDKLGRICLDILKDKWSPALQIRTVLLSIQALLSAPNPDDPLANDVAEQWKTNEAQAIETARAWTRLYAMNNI
# [17] = biological target: Voltage-gated inwardly rectifying potassium channel KCNH2 (Homo sapiens, UniProt Q12809); details: Potency;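 further: confirmatory quantitative high-throughput screen measuring inhibition of hERG channel activity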
# Chain of Voltage-gated inwardly rectifying potassium channel KCNH2 (Q12809 whole entry): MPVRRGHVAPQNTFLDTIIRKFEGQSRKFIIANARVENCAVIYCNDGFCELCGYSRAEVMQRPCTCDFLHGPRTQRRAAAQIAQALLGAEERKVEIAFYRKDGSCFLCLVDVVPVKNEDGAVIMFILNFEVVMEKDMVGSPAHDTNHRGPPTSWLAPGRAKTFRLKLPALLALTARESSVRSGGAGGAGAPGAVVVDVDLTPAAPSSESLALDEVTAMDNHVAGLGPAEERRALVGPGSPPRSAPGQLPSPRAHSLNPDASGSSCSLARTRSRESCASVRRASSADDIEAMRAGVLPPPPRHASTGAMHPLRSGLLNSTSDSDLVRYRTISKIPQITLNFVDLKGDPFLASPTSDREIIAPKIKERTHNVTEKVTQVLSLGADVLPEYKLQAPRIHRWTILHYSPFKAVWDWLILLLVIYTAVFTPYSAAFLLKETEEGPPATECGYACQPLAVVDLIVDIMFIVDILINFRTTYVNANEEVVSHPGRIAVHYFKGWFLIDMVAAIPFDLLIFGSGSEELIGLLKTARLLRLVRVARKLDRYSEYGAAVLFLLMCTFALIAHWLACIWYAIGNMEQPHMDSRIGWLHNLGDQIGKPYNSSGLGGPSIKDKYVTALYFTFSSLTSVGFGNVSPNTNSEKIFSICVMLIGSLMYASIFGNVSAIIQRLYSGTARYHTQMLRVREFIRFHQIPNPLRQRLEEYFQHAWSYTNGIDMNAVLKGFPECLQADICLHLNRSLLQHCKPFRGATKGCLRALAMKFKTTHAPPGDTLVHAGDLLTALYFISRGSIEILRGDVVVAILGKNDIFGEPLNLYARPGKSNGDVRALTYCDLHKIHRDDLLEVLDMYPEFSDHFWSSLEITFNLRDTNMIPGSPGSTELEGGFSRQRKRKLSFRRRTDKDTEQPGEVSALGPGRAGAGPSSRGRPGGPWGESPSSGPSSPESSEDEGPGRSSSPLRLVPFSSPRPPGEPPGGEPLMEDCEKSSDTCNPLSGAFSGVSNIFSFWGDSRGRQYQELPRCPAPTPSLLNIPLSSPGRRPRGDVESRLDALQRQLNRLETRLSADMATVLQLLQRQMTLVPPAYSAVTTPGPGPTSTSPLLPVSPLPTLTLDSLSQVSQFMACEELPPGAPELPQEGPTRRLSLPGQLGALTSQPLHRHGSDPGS
# Chain of Peroxisome proliferator-activated receptor gamma/Nuclear receptor coactivator 1 (P37231 whole entry): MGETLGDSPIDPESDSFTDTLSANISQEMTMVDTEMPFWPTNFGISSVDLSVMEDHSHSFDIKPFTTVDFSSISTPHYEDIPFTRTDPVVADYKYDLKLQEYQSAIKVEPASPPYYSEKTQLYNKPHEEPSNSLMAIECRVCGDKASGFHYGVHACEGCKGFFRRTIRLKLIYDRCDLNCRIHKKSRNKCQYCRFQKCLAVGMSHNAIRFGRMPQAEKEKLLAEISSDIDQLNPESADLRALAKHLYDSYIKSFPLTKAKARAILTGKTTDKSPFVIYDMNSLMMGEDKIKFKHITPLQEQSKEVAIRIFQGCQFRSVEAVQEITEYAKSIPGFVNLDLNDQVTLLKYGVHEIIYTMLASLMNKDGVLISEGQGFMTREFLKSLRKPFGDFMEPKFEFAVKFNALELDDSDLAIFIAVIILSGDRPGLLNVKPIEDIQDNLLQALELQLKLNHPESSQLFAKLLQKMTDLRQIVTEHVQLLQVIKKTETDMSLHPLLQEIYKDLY
# Chain of Peroxisome proliferator-activated receptor gamma/Nuclear receptor coactivator 1 (Q15788 whole entry, further chain): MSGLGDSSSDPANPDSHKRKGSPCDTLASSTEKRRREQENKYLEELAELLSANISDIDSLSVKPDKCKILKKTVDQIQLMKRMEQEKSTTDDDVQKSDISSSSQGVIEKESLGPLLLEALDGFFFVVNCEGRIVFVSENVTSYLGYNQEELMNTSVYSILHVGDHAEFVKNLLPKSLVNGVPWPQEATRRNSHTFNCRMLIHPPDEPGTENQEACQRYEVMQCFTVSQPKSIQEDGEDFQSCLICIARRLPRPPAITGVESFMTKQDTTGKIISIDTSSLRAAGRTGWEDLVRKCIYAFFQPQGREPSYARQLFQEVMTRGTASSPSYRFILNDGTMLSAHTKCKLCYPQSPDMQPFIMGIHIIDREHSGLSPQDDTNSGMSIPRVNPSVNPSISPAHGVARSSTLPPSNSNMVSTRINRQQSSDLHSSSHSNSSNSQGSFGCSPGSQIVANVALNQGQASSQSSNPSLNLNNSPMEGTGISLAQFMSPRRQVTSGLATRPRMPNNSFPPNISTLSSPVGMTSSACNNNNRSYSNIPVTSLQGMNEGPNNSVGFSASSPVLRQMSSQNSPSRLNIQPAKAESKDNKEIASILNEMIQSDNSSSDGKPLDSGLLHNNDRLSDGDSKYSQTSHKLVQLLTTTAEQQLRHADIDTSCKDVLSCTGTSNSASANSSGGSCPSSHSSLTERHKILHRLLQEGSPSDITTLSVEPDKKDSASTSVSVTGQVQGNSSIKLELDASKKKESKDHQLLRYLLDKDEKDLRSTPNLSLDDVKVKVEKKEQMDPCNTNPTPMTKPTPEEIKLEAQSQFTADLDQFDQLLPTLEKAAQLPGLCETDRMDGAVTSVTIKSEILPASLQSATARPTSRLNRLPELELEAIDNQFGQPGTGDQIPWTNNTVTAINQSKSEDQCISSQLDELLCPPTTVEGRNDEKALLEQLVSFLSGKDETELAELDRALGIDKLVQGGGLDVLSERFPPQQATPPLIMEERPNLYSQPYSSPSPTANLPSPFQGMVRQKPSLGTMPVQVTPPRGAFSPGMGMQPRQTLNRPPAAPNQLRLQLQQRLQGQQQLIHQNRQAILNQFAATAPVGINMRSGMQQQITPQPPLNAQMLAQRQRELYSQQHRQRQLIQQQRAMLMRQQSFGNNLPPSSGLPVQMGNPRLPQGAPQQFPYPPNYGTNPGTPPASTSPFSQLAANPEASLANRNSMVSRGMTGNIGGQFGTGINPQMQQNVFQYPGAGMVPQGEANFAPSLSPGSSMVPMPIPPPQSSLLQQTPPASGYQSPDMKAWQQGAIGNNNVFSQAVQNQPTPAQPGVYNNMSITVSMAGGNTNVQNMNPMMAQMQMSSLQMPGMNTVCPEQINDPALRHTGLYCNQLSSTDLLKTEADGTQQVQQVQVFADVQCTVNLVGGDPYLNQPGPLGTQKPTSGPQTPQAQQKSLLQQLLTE
# Chain of Peroxisome proliferator-activated receptor gamma/Nuclear receptor coactivator 2 (P37231 whole entry): as the sequence (P37231 whole entry) above
# Chain of Peroxisome proliferator-activated receptor gamma/Nuclear receptor coactivator 2 (Q15596 whole entry, further chain): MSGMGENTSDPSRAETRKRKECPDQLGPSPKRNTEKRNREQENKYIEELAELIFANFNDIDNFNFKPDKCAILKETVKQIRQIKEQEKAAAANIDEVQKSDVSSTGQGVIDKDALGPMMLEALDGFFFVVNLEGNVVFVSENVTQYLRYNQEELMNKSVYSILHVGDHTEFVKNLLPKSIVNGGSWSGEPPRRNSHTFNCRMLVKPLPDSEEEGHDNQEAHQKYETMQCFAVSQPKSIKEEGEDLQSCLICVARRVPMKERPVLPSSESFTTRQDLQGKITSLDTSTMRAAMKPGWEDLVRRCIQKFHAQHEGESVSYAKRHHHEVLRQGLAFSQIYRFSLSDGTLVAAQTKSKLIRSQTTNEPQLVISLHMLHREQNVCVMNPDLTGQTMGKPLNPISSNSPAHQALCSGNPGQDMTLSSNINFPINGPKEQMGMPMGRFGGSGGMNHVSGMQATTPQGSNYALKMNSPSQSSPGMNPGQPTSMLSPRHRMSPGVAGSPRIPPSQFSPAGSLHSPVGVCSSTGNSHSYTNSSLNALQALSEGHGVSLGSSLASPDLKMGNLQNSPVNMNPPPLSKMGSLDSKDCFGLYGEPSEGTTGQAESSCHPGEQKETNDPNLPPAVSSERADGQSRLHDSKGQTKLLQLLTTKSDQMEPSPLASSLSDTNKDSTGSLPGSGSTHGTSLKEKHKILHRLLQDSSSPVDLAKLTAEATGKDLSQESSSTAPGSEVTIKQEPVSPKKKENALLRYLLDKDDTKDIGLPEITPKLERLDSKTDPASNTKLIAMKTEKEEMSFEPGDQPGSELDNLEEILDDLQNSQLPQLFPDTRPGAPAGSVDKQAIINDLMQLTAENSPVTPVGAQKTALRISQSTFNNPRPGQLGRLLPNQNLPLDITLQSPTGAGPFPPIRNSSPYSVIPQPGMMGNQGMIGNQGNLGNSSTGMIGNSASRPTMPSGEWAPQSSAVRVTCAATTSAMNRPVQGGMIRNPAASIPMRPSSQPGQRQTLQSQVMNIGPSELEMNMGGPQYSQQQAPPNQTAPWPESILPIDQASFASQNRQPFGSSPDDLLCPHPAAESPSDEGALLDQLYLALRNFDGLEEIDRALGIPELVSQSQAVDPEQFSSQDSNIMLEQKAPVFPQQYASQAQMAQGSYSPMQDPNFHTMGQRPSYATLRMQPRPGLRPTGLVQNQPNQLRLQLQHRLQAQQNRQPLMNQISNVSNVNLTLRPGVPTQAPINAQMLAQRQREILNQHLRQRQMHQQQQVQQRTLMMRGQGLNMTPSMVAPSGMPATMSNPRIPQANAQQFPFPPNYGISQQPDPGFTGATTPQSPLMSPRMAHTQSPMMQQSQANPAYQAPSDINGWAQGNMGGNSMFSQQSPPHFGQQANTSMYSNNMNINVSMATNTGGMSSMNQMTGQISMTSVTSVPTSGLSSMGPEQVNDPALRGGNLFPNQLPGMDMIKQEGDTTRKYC
smiles,measurement,setting,value
O=C(Nc1nc(-c2ccc(Cl)s2)cs1)c1cccs1,EC50,H4,5.03 µM (active)
same,EC50,[1],15.1 µM (active)
same,EC50,[2],8.5 µM (active)
same,IC50,Protein skinhead-1,81.2 µM (inactive)
same,IC50,Coagulation factor XII,23.9 µM (active)
same,EC50,[3],1.04 µM (active)
same,EC50,[4],34.3 µM (active)
CCOC(=O)c1c(-c2cccc(C)c2)csc1NC(=O)c1c(-c2ccccc2)noc1C,AC50,Cytochrome P450 3A4,5.62 µM (inconclusive)
same,CC50,[5],5.17 µM (active)
same,IC50,cells,9.89 µM (active)
same,CC50,Vero [6],> 25 µM (active)
same,IC50,Vero [7],1.43 µM (active)
Cn1c(=O)cc(SCC(=O)Nc2ccccn2)c2ccccc21,EC50,[8],> 79.4 µM (not active)
same,EC50,[9],> 79.4 µM (not active)
same,EC50,[10],> 79.4 µM (inactive)
Cc1cccc(Nc2nc(-c3ccccc3)c(C(=O)Nc3cccnc3)s2)c1,EC50,[8],> 79.4 µM (not active)
same,EC50,[9],7.24 µM (active)
same,EC50,[10],7.34 µM (active)
O=C1c2ccccc2C(=O)c2c1ncn2-c1ccccc1,EC50,[11],13.1 µM (active)
same,EC50,Protein RecA,229 µM (active)
same,AC50,[12],57.3 µM (active)
same,AC50,[13],7.33 µM (active)
same,EC50,[14],9.51 µM (active)
same,EC50,[15],15.6 µM (active)
N=c1n(CC(=O)c2ccc(Br)cc2)c2ccccc2n1Cc1ccccc1,AC50,[13],6.41 µM (active)
same,IC50,[16],> 20 µM (inactive)
CCOc1ccc2nc(N)sc2c1,AC50,[17],28.2 µM (inconclusive)
c1ccc2c(c1)-c1cccc3cccc-2c13 [FLUORANTHENE],AC50,[17],12.6 µM (inconclusive)
CN1CCC(=C2c3ccccc3CC(=O)c3sccc32)CC1 [KETOTIFEN FUMARATE],AC50,[17],22.4 µM (inconclusive)
